Data on three molecules can be found in patent US10507213B2, “Method for treating cancer using a selenourea-coordinated gold(I)-carbene complex” (King Fahd University of Petroleum and Minerals, priority 2017, dated 2019).

Series [1] relates to A549 (lung carcinoma). The experiment in a line: in vitro cytotoxicity, MTT assay, A549. Type of series: cell-based, human. The settings on record: 72 h incubation, three independent experiments, read-out: IC50 values against A549 cancer cell line. As for the experimental part: The complexes, [Au(IPr)Cl] and [Au(IPr)(Seu)]PF6 (1) were tested for their in vitro cytotoxic effects against human cell lines; MCF7 (breast cancer), HCI15 (colon cancer) and A549 (lung carcinoma) as reported previously. See M. Altaf, M. Monim-ul-Mehboob, A. A. A. Seliman, A. A. Tsai), V. Dhuna, G. Bhatia, K. Dhuna, Synthesis, X-ray Structures, Spectroscopic Analysis and Anticancer Activity of Novel Gold(I) Carbene Complexes, J. Organomet. Chem, 765 (2014) 68-79, incorporated herein by reference in its entirety. The cells were seeded at the concentration of 3×10^3 cells/well in 100 μL of DMEM containing 10% fetal bovine serum (FBS) in a 96-well tissue culture plate and incubated for 72 h at 37° C., 5% CO2 and 90% relative humidity in a CO2 incubator. […] The medium in the wells was cast off and 100 μL of DMEM containing MTT (0.5 mg/ml) was added to the wells, with subsequent incubation in the CO2 incubator at 37° C. in the dark for 4 h. After incubation, purple-colored formazan produced by the cells appeared as dark crystals in the bottom of the wells. The culture medium was carefully removed from each well to prevent disruption of the monolayer and 100 μL of dimethylsulfoxide (DMSO) was added to each well. The solution in the wells was thoroughly mixed to dissolve the formazan crystals which produce a purple solution. The absorbance of the 96 well-plates was measured at 570 nm with LabSystems Multiskan EX-ELISA reader against a reagent blank. The experimental results are calculated as the micromolar concentration of 50% cell growth inhibition (IC50) of each drug. The MTT assay was carried out in three independent experiments for each analysis.
The complexes, [Au(Ipr)Cl] and [Au(Ipr)(Seu)]PF6 or Complex (I), as well as cisplatin (standard anticancer drug) were tested for in vitro cytotoxicity against three human cancer cell lines; A549 (lung carcinoma), HCT15 (colon cancer cells) and MCF7 (breast cancer cells) using MTT assay.
The IC50 values (as μM) obtained from the plot of the concentration of compounds against the percentage of cell viability are given in Table 4. […]
(In general: Tetrazolium dyes change colour on reduction, which living cells bring about.)

Series [2] deals with HCT15 (colon cancer cells). The experiment in a line: in vitro cytotoxicity, MTT assay, HCT15. The settings on record: 72 h incubation, three independent experiments, read-out: IC50 values against HCT15 cancer cell line. Type of series: cell-based, human. As for the experimental part: (§1) The complexes, [Au(IPr)Cl] and [Au(IPr)(Seu)]PF6 (1) were tested for their in vitro cytotoxic effects against human cell lines; MCF7 (breast cancer), HCI15 (colon cancer) and A549 (lung carcinoma) as reported previously. See M. Altaf, M. Monim-ul-Mehboob, A. A. A. Seliman, A. A. Tsai), V. Dhuna, G. Bhatia, K. Dhuna, Synthesis, X-ray Structures, Spectroscopic Analysis and Anticancer Activity of Novel Gold(I) Carbene Complexes, J. Organomet. Chem, 765 (2014) 68-79, incorporated herein by reference in its entirety. The cells were seeded at the concentration of 3×10^3 cells/well in 100 μL of DMEM containing 10% fetal bovine serum (FBS) in a 96-well tissue culture plate and incubated for 72 h at 37° C., 5% CO2 and 90% relative humidity in a CO2 incubator. After that 100 μL of 100, 50, 25 and 12.5 μM solutions of cisplatin and gold(I) complexes prepared in DMEM were added to the cells and the cultures were incubated for 72 h. The medium in the wells was cast off and 100 μL of DMEM containing MTT (0.5 mg/ml) was added to the wells, with subsequent incubation in the CO2 incubator at 37° C. in the dark for 4 h. After incubation, purple-colored formazan produced by the cells appeared as dark crystals in the bottom of the wells. The culture medium was carefully removed from each well to prevent disruption of the monolayer and 100 μL of dimethylsulfoxide (DMSO) was added to each well. The solution in the wells was thoroughly mixed to dissolve the formazan crystals which produce a purple solution. The absorbance of the 96 well-plates was measured at 570 nm with LabSystems Multiskan EX-ELISA reader against a reagent blank. The experimental results are calculated as the micromolar concentration of 50% cell growth inhibition (IC50) of each drug. The MTT assay was carried out in three independent experiments for each analysis. […]

Series [3] concerns MCF7 (breast cancer cells). Put plainly: in vitro cytotoxicity, MTT assay, MCF7. In kind it is cell-based, human. As to conditions: 72 h incubation, three independent experiments, read-out: IC50 values against MCF7 cancer cell line. As for the experimental part: as §1
Series [4] in a line: stability by square wave stripping voltammetry (SWSV) in phosphate buffer. In kind it is physicochemical. The settings on record: phosphate buffer pH 7.0, SWSV, 50, 75 and 100 μM. The method, then: (§2) Electrochemical (Square wave stripping voltammetry, SWSV) measurements were performed on a CH Instrument (CHI 1232A) potentiostat. Electrochemical cell comprises of a platinum wire as a counter electrode, an Ag/AgCl saturated with KCl as reference electrode and glassy carbon electrode (GCE; 3.0 mm diameter, Model CHI104, CH Instruments, Austin, Tex.) as a working electrode inserted into 2.0 mL glass cell containing phosphate buffer solution, pH 7.0 as supporting electrolyte. 0.1 M buffer solution was prepared by mixing, appropriate volumes of 0.2 M monosodium phosphate and disodium phosphate prepared with distilled water. Stock solutions of the complex prepared with methanol, while L-tyrosine and L-tryptophan were prepared by dissolving in 0.10 M NaOH in ratio 1:4 with distilled water. GCE was polished with 0.05 μm alumina, rinsed with distilled water prior to every SWSV measurements at room temperature in a quiescent condition at potential windows between −0.20 V and 1.20 V for the stability and 0.00 V and 1.20 V for the interaction studies. Working conditions are; pulse width (increment) 4 mV, pulse height (amplitude) 25 mV and frequency, 15 Hz.
(§3) The stability and electrochemical behavior of complex 1 were examined by its electroactive properties in phosphate buffer solution of pH 7.0 using SWSV technique (Square wave stripping voltammetry). […]

A short description of series [5]: stability in polar solvents. The settings on record: water, methanol, ethanol, acetone; deuterated solvents such as dichloromethane. Type of series: physicochemical.
Series [6] can be described thus: solubility in phosphate buffer estimated from SWSV. Type of series: physicochemical. As to conditions: 0.1 M phosphate buffer (pH 7.0); estimation based on the highest soluble concentration. The method, then: as §2, §3

Turning to `N.N.[Cl][Pt][Cl]` [Cisplatin], the values for the IC50 in series [1], in series [2] and in series [3] were 42 ± 2 µM, 32 ± 2 µM and 23 ± 4 µM, respectively.

For the molecule `CC(C)c1cccc(C(C)C)c1-n1cc[n+](-c2c(C(C)C)cccc2C(C)C)[c]1[Au-][Se+]=C(N)N.F[P-](F)(F)(F)(F)F` [Complex 1, [Au(IPr)(Seu)]PF6], the “stability in aqueous solution” value in series [4] is on record as “stable in aqueous solution”. In addition, the “stability in polar solvents” value in series [5] is “stable in polar solvents such as water, methanol, ethanol and acetone”. Further, the “solubility in phosphate buffer” value in series [6] is recorded as at least 8.53 mg/100 ml. For the same molecule, the IC50 (in general, the concentration that inhibits the measured activity by half) amounted to 82 ± 1 µM in series [1], 76 ± 2 µM in series [2] and 75 ± 3 µM in series [3].

For “chlorido[1,3-Bis(2,6-di isopropylphenyl)imidazol-2-ylidene]gold(I) [[Au(Ipr)Cl]]”, the IC50 amounted to 180 ± 2 µM in series [1], 122 ± 1 µM in series [2] and 110 ± 2 µM in series [3].
